Results reported in ChEMBL document CHEMBL1201862, “PubChem BioAssay data set” (2004).
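Five concentrations, 48 hours, 96-well plates. At the GI50, growth is halved.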 Calls of active or inactive are those of the source. Rule as the data show it: active = GI50 up to about 1.1 µM and inactive = higher.

What was measured:
Assay in all cases: NCI anticancer screen, dose series, 48 h
[1] = test system: SF-268
[2] = test system: NCI-H226
[3] = test system: NCI-H522
[4] = test system: U-251
[5] = test system: NCI-H460
[6] = test system: IGROV-1
[7] = test system: HL-60
[8] = test system: SK-OV-3
[9] = test system: CAKI-1
[10] = test system: CCRF-CEM
[11] = test system: SN12C
[12] = test system: 786-0
[13] = test system: KM12
[14] = test system: HCT-15
[15] = test system: COLO 205
[16] = test system: LOX IMVI
[17] = test system: TK-10
[18] = test system: SK-MEL-28

For `COc1cc(C2[C@H]3C(=O)N(c4ccc(Cc5ccc(N6C(=O)[C@@H]7ON(c8ccccc8)C(c8cc(OC)c(OC)c(OC)c8)[C@@H]7C6=O)cc5)cc4)C(=O)[C@H]3ON2c2ccccc2)cc(OC)c1OC` (stereo partly drawn), the GI50 [1] was > 100 µM (inactive), the GI50 [2] was > 100 µM (inactive) and the GI50 [3] was > 100 µM (inactive). For the same compound, the GI50 [4] was > 100 µM (inactive), the GI50 [5] was > 100 µM (inactive) and the GI50 [6] was > 100 µM (inactive). For the same compound, the GI50 [7] was > 100 µM (inactive), the GI50 [8] was > 100 µM (inactive) and the GI50 [9] was > 100 µM (inactive). For the same compound, the GI50 [10] was > 100 µM (inactive), the GI50 [11] was > 100 µM (inactive) and the GI50 [12] was > 100 µM (inactive). The GI50 [13] was > 100 µM (inactive), the GI50 [14] was over 100 µM and the GI50 [15] was > 100 µM (inactive). For the same compound, the GI50 [16] was > 100 µM (inactive), the GI50 [17] was > 100 µM (inactive) and the GI50 [18] was > 100 µM (inactive).
In the case of `CC1(C)CC(=O)C(CC2C(=O)CCCC2=O)C(=O)C1`, the GI50 [1] is reported as > 100 µM (inactive), the GI50 [2] is reported as > 100 µM (inactive) and the GI50 [3] is reported as > 100 µM (inactive). The GI50 [4] was > 100 µM (inactive), the GI50 [5] was > 100 µM (inactive) and the GI50 [6] was > 100 µM (inactive). The GI50 [7] was > 100 µM (inactive), the GI50 [8] was > 100 µM (inactive) and the GI50 [9] was > 100 µM (inactive). The GI50 [10] was > 100 µM (inactive), the GI50 [11] was > 100 µM (inactive) and the GI50 [12] was > 100 µM (inactive). The GI50 [13] was > 100 µM (inactive), the GI50 [14] was over 100 µM and the GI50 [15] was > 100 µM (inactive). For the same compound, the GI50 [16] was > 100 µM (inactive), the GI50 [17] was > 100 µM (inactive) and the GI50 [18] was > 100 µM (inactive).
With `CC(=O)OC1CC2C(C)(C)OC(=O)CC(OC(C)=O)[C@]2(C)C2CCC3(C)C(=CCC3c3ccoc3)[C@]12C` (stereo partly drawn) the GI50 [1] was 21.1 µM (inactive), the GI50 [2] was 14.9 µM (inactive) and the GI50 [3] was 15.6 µM (inactive). For the same compound, the GI50 [4] was 37.6 µM (inactive), the GI50 [5] was 21.4 µM (inactive) and the GI50 [6] was 24.5 µM (inactive). For the same compound, the GI50 [7] was 16.1 µM (inactive), the GI50 [8] was 21.7 µM (inactive) and the GI50 [9] was 31.3 µM (inactive). For the same compound, the GI50 [10] was 18.2 µM (inactive), the GI50 [11] was 32.6 µM (inactive) and the GI50 [12] was 19.4 µM (inactive). The GI50 [13] was 30.6 µM (inactive), the GI50 [14] was 26.2 µM and the GI50 [15] was 14.1 µM (inactive). For the same compound, the GI50 [16] was 28.7 µM (inactive), the GI50 [17] was 49 µM (inactive) and the GI50 [18] was 94.6 µM (inactive).
`CCCN1C(=O)CNC(=O)c2[nH]cnc21` was tested, and the GI50 [1] was > 100 µM (inactive), the GI50 [2] was > 100 µM (inactive) and the GI50 [3] was > 100 µM (inactive). For the same compound, the GI50 [4] was > 100 µM (inactive), the GI50 [5] was > 100 µM (inactive) and the GI50 [6] was > 100 µM (inactive). The GI50 [7] was > 100 µM (inactive), the GI50 [8] was > 100 µM (inactive) and the GI50 [9] was > 100 µM (inactive). For the same compound, the GI50 [10] was > 100 µM (inactive), the GI50 [11] was > 100 µM (inactive) and the GI50 [12] was > 100 µM (inactive). The GI50 [13] was > 100 µM (inactive), the GI50 [14] was over 100 µM and the GI50 [15] was > 100 µM (inactive). For the same compound, the GI50 [16] was > 100 µM (inactive), the GI50 [17] was > 100 µM (inactive) and the GI50 [18] was > 100 µM (inactive).
In the case of `COc1cc2ccc3c4cc(OC)c(OC(C)C)cc4c[n+](C)c3c2cc1OC`, the GI50 [1] is reported as 32.7 µM (inactive), the GI50 [2] is reported as 71.3 µM (inactive) and the GI50 [3] is reported as 17.4 µM (inactive). The GI50 [4] was 31.3 µM (inactive), the GI50 [5] was > 100 µM (inactive) and the GI50 [6] was 74.5 µM (inactive). For the same compound, the GI50 [7] was 35.1 µM (inactive), the GI50 [8] was > 100 µM (inactive) and the GI50 [9] was > 100 µM (inactive). The GI50 [10] was 49.1 µM (inactive), the GI50 [11] was 31.5 µM (inactive) and the GI50 [12] was 99.3 µM (inactive). The GI50 [13] was > 100 µM (inactive), the GI50 [14] was over 100 µM and the GI50 [15] was 14.5 µM (inactive). For the same compound, the GI50 [16] was 54.3 µM (inactive), the GI50 [17] was > 100 µM (inactive) and the GI50 [18] was 33.6 µM (inactive).
`Cn1cnc(S[C@H]2[C@H]3C(=O)C=C4S[C@H]5C[C@]42C2=C(N5)C(=O)c4[nH]cc5c4C2=[N+]3CC5)c1C[C@H](N)C(=O)O` was tested, and the GI50 [1] was 12.1 µM (inactive), the GI50 [2] was 19.4 µM (inactive) and the GI50 [3] was 4.58 µM (inactive). For the same compound, the GI50 [4] was 17.2 µM (inactive), the GI50 [5] was 27.5 µM (inactive) and the GI50 [6] was 16.4 µM (inactive). For the same compound, the GI50 [7] was 15.3 µM (inactive), the GI50 [8] was 21.4 µM (inactive) and the GI50 [9] was 27 µM (inactive). The GI50 [10] was 17.1 µM (inactive), the GI50 [11] was 3.56 µM (inactive) and the GI50 [12] was 19 µM (inactive). The GI50 [13] was 16.7 µM (inactive), the GI50 [14] was 30.8 µM and the GI50 [15] was 2.11 µM (inactive). The GI50 [16] was 13.1 µM (inactive), the GI50 [17] was 38.3 µM (inactive) and the GI50 [18] was 16.8 µM (inactive).
